According to patent US7524840B2, “7,8-disubstituted pyrazolobenzodiazepines” (Hoffmann-La Roche Inc., priority 2004, dated 2009):
pIC50: −log10 of the molar value.

How the values were obtained:
[1] = tested on: MDA-MB-435; assay: MDA-MB-435 cell-based MTT proliferation assay; conditions: Homo sapiens, MDA-MB-435, 120 h, 5 days post addition of test compound, read-out: IC50 for inhibition in the MDA-MB-435 cell-based assay
Protocol: (§1) The estrogen receptor negative epithelial breast carcinoma line (MDA-MB-435) was purchased from American Type Cell Culture Collection (ATCC; Rockville, Md.) and was grown in the medium recommended by ATCC. For analysis of the effect of the test compounds on growth of these cells, the cells were plated at 2000 cells per well in a 96-well tissue culture plate, and were incubated overnight at 37° C. with 5% CO2. The next day, the test compounds were dissolved in 100% dimethyl sulfoxide (DMSO) to yield a 10 mM stock solution. Each compound was diluted with sterile medium to 1 mM in a sufficient quantity to yield a final concentration of 120 μM. The compounds were then serially diluted in medium with 1.2% DMSO. […] The plates were returned to the incubator, and 5 days post addition of test compound, were analyzed as described below.
(§2) 3-(4,5-Dimethylthiazole-2-yl)-2,5-diphenyl-2H-tetrazolium bromide (thiazolyl blue; MTT) was added to each well to yield a final concentration of 1 mg/mL. […] Absorbencies were read in a microtiter plate reader (Molecular Dynamics) at a wavelength of 570 nm with a 650 nm reference. Percent inhibition was calculated by subtracting the absorbance of the blank (no cell) wells from all wells, then subtracting the division of the average absorbance of each test duplicate by the average of the controls from 1.00. […]

[2] = tested on: SW480; assay: SW480 (colon) cell-based MTT proliferation assay; conditions: Homo sapiens, SW480, 144 h, 6 days post addition of the test compound, read-out: IC50 for inhibition in the SW480 (colon) based assay
Protocol: as §1, §2

## Cc1cc2c(cc1C)C(c1ccccc1Cl)=NCC(=O)N2 [Iw, 5-(2-chlorophenyl)-1,3-dihydro-7,8-dimethyl-2H-1,4-benzodiazepin-2-one]
[1]
  pIC50: 6.02
[2]
  pIC50: 6.02
